Results as given in patent publication US20120009593A1, “ANALYSIS METHOD FOR THE IN VITRO DIAGNOSIS OF BENIGN PROSTATIC HYPERPLASIA (BPH) IN DOGS BY ASSAYING CANINE PROSTATE SPECIFIC ESTERASE, AND BPH TREATMENT FOLLOW UP” (VIRBAC SA, priority 2009, published 2012).
Several values for one entry are separate records, joined by “and”; a condition that tells them apart may be missing. Equal entries are not always repeated.

How the values were obtained:
dogs with signs of BPH [1] = assay: Anti-androgen treatment follow up: serum CPSE level in treated dogs; format: in vivo, dog
Method: The CPSE concentration in the serum or plasma samples was determined by sandwich ELISA. 96-well microplates (Stripwell Costar/Corning, N.Y., USA) were coated overnight at +4° C. with monoclonal or polyclonal anti-CPSE antibodies, at a concentration of 5 μg/ml in a carbonate buffer at pH 9.6. After 4 washes, the wells were incubated for 1 hour at 37° C. with a saline phosphate buffer at pH 7.2, while adding 5% bovine serum albumin. Finally, the plates were incubated for 30 minutes at room temperature with a saline phosphate buffer at pH 7.2 to which 10% sucrose was added. Once emptied, the microplates were dried overnight under vacuum, and then packaged in the presence of a desiccant until use.
The assay of samples is carried out by dispensing […] of serum or plasma (heparinized plasma or EDTA plasma) into each of the wells. After 1 hour at 37° C., the microplate is washed. 100 μl of monoclonal or polyclonal anti-CPSE antibodies conjugated to peroxidase are dispensed. The wells are incubated for 1 hr at 37° C. and washed again. The antibodies remaining attached to the walls are developed by adding 3,3′,5,5′tetramethyl benzidine. After completion of the reaction, the absorbance is read at 450 nm.
Five dogs with signs of BPH (see inclusion criteria above) were treated with osaterone acetate (YPOZANE®, Virbac). This molecule is an anti-androgen, which acts on the prostatic parenchyma. The CPSE level was measured at days D15 and D0. The dogs were treated as recommended and were given from 0.25-0.5 mg/kg/day of osaterone acetate, for a period of 7 days. Serum was collected prior to any treatment and after 15 days. The CPSE level was measured in the different samples.
Dogs with signs of PBH were treated with osaterone acetate, as recommended by the manufacturer. The serum CPSE level in these dogs was measured before the treatment and after 15 days.

dogs with signs of BPH [2] = assay: Anti-androgen treatment follow up: prostate size by digital rectal examination; format: in vivo, dog; conditions: all five treated dogs, after treatment

## CC(=O)O[C@]1(C(C)=O)CC[C@H]2[C@@H]3C=C(Cl)C4=CC(=O)OC[C@]4(C)[C@H]3CC[C@@]21C [osaterone acetate]
Dogs with signs of BPH [1]; five dogs with signs of BPH, D0 vs D15
  change in serum CPSE level between before treatment and treatment completed: decrease in the serum CPSE level
Dogs with signs of BPH [1]; serum, individual Dogs 1-5 with signs of BPH, D+15, 0.25-0.5 mg/kg/day for 7 days
  CPSE (ng/ml), D + 15: 15 ng/mL and 21 ng/mL and 40 ng/mL and 10 ng/mL and 36 ng/mL
Dogs with signs of BPH [1]; serum, individual dogs C1-C5 with signs of BPH, 15 days after first sampling, 0.25-0.5 mg/kg/day for 7 days
  CPSE (ng/ml), Visit 2: 15 ng/mL and 21 ng/mL and 40 ng/mL and 10 ng/mL and 36 ng/mL
Dogs with signs of BPH [2]
  size of the prostate by digital rectal examination: return to a normal size of the prostate
